Data reported in ChEMBL document CHEMBL4507268 (2021).

Experiments:
[1] = organism: Rattus norvegicus; settings: Compound concentration 10.0 uM
[2] = target: Ribosomal protein S6 kinase alpha-1 (Homo sapiens) (UniProt Q15418); settings: Compound concentration 1.0 uM
[3] = target: T1, Serine/threonine-protein kinase Nek2 (Homo sapiens) (UniProt P51955); settings: Compound concentration 1.0 uM
T1 sequence (whole entry): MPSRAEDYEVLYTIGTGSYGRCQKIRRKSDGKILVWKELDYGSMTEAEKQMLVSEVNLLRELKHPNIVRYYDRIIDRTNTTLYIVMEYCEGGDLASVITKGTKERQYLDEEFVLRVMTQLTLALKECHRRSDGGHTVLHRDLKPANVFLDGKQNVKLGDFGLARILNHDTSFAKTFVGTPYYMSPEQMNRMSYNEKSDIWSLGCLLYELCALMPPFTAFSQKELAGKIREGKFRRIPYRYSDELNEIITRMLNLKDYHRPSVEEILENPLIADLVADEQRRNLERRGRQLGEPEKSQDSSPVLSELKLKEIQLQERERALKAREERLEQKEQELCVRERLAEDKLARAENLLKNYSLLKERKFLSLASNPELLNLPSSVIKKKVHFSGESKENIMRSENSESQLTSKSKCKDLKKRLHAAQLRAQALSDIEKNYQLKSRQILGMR

[4] = target: Serine/threonine-protein kinase MARK2 (Homo sapiens) (UniProt Q7KZI7); settings: Compound concentration 1.0 uM
Sequence of Serine/threonine-protein kinase MARK2 (Homo sapiens) (Q7KZI7 whole entry): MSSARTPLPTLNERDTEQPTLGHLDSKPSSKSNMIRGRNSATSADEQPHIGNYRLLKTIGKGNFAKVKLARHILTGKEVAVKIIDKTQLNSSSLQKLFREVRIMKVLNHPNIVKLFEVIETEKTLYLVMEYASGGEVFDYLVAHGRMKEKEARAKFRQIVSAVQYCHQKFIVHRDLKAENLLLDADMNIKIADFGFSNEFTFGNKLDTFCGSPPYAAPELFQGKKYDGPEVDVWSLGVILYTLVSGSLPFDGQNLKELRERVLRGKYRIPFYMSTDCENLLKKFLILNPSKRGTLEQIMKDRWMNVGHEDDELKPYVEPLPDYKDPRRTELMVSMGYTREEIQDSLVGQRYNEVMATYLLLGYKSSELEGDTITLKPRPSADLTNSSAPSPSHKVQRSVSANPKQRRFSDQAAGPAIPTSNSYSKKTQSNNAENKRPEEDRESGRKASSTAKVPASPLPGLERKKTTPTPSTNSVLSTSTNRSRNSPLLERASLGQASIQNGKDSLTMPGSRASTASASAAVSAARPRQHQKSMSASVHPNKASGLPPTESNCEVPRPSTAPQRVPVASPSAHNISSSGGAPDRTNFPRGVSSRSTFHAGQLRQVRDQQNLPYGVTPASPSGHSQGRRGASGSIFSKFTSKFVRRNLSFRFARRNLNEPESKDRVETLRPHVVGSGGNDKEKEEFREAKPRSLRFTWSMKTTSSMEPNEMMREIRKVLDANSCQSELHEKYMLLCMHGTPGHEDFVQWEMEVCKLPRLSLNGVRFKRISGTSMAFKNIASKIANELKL

[5] = target: T2, Mitogen-activated protein kinase 13 (Homo sapiens) (UniProt O15264); settings: Compound concentration 1.0 uM
T2 sequence (whole entry): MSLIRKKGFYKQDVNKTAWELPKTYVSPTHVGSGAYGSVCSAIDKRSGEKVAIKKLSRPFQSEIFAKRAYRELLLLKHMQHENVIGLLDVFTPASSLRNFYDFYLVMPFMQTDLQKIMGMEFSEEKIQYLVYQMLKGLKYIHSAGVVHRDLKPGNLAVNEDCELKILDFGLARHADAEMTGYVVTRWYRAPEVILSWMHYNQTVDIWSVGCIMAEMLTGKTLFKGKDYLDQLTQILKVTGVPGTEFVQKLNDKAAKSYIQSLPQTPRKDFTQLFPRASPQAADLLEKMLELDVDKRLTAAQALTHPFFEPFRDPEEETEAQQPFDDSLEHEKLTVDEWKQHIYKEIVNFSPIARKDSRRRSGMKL

[6] = target: CDK4/Cyclin D3 (Homo sapiens) (UniProt P11802+P30281); settings: Compound concentration 1.0 uM
[7] = target: Serine/threonine-protein kinase mTOR (Homo sapiens) (UniProt P42345); settings: Compound concentration 1.0 uM
[8] = target: T3, Tyrosine-protein kinase receptor TYRO3 (Homo sapiens) (UniProt Q06418); settings: Compound concentration 1.0 uM
T3 sequence (whole entry): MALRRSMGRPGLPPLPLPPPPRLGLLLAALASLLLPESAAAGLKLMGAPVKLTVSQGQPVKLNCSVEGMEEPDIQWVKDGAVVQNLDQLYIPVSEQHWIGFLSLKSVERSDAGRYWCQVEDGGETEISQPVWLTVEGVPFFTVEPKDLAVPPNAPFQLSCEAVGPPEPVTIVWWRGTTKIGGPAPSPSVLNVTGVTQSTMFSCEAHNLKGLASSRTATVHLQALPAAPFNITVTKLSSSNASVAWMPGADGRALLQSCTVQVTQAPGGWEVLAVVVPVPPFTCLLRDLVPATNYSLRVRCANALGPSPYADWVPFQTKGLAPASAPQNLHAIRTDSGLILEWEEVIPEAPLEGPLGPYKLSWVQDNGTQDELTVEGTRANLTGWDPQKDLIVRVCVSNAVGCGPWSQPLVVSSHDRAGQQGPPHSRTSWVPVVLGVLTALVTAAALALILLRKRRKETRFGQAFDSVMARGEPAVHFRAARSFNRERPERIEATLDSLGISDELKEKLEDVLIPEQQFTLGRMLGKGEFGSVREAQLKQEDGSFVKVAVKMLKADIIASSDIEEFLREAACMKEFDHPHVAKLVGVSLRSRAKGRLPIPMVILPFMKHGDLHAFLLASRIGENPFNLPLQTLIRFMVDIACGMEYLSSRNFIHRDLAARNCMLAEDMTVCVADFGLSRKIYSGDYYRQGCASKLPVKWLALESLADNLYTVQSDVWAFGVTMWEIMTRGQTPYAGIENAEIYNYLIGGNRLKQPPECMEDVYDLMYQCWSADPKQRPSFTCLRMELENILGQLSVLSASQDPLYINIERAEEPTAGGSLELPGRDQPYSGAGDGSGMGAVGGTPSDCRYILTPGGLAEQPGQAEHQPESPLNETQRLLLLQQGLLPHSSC

[9] = target: Vascular endothelial growth factor receptor 2 (Homo sapiens) (UniProt P35968); settings: Compound concentration 1.0 uM
Sequence of Vascular endothelial growth factor receptor 2 (Homo sapiens) (P35968 whole entry): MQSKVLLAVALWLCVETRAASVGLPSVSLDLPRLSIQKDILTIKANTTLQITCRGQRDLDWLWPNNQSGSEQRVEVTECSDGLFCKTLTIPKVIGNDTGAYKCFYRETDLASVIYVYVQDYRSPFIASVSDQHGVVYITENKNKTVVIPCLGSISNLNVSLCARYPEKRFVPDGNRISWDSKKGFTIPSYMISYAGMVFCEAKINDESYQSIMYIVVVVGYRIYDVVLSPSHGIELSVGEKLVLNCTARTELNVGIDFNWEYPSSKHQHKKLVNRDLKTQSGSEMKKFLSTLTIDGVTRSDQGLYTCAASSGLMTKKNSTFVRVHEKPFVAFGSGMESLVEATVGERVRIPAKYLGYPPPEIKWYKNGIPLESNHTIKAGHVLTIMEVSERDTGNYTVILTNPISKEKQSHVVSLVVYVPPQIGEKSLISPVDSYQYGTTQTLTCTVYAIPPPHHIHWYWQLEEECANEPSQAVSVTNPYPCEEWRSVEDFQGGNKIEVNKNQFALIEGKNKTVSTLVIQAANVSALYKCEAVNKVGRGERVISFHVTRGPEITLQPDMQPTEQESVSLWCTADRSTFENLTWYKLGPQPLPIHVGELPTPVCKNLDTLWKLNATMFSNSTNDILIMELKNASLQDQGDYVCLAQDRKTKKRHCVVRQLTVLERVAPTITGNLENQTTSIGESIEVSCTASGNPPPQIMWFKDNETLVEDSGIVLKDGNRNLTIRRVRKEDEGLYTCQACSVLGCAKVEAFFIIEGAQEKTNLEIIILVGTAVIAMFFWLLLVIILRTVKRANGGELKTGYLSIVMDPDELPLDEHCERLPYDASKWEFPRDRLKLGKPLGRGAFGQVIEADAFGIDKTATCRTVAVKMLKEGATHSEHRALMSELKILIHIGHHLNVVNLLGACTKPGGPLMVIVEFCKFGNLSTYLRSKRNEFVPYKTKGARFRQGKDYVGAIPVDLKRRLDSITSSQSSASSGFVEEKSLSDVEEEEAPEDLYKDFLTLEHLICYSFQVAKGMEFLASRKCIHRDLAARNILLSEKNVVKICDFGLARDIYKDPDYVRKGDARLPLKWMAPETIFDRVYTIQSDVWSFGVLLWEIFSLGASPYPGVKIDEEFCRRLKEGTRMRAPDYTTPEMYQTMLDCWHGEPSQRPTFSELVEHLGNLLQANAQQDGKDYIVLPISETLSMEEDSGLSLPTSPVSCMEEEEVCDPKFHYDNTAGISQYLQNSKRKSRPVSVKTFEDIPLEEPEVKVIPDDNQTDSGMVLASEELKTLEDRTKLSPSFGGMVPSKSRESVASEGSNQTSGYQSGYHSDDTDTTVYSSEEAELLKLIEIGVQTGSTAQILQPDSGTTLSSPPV

[10] = target: Glycogen synthase kinase-3 beta (Homo sapiens) (UniProt P49841); settings: Compound concentration 1.0 uM
Sequence of Glycogen synthase kinase-3 beta (Homo sapiens) (P49841 whole entry, looked up): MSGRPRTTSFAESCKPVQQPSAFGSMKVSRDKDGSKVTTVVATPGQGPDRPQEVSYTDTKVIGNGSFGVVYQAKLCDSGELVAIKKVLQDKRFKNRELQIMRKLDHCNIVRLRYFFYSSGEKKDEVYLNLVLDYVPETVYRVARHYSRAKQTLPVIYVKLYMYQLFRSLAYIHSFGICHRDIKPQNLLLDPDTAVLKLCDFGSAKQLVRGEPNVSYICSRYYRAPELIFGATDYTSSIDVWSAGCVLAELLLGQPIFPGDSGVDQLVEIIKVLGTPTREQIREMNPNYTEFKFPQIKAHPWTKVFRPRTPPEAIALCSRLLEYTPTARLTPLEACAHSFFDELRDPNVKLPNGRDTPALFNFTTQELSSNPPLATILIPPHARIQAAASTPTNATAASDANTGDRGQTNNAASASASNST

[11] = target: Serine/threonine-protein kinase tousled-like 2 (Homo sapiens) (UniProt Q86UE8); settings: Compound concentration 1.0 uM
Sequence of Serine/threonine-protein kinase tousled-like 2 (Homo sapiens) (Q86UE8 whole entry, looked up): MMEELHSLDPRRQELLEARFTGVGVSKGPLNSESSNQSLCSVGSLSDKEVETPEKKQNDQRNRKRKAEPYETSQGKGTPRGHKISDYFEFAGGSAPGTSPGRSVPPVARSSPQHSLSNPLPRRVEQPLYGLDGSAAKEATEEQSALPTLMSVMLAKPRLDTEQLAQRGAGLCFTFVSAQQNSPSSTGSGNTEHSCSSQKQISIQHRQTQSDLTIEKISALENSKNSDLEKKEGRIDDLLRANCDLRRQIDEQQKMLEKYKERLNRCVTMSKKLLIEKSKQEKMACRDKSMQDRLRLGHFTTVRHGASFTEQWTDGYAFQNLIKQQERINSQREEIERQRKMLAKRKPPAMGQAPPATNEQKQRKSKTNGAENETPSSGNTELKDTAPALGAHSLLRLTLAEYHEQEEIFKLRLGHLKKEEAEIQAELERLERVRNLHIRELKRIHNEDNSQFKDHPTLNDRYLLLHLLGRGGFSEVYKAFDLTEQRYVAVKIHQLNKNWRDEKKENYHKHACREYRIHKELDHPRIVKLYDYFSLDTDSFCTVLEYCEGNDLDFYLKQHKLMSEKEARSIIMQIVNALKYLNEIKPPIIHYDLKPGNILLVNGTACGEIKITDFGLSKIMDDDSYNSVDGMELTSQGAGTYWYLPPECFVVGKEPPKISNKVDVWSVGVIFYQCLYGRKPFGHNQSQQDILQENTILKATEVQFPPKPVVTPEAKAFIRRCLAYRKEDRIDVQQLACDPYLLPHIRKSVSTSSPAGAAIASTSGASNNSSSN

Sequence of Ribosomal protein S6 kinase alpha-1 (Homo sapiens) (Q15418 whole entry): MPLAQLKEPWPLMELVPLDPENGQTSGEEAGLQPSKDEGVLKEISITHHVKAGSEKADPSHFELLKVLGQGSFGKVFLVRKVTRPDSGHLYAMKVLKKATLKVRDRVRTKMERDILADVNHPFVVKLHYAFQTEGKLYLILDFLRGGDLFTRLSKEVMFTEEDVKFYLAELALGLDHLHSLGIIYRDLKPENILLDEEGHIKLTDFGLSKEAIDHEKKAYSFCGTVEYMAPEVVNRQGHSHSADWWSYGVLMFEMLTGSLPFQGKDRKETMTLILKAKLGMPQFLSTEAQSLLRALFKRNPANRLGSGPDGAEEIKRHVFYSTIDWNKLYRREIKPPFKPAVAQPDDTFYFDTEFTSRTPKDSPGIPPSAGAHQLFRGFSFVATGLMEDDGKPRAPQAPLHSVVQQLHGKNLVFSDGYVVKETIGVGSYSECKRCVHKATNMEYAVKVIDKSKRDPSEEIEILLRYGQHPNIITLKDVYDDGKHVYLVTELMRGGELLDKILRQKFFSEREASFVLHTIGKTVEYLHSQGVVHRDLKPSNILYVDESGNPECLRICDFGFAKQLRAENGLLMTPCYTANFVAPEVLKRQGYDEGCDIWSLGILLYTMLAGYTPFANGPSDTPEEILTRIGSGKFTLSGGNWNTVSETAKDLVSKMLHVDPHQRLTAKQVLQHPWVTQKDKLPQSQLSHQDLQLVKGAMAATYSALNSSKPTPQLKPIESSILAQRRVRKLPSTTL

Cc1nc(C2CCN(C(=O)c3ccc(OC(F)(F)F)cc3N)CC2)c2ncc(N3CCN(C)CC3)cc2n1 [BAY-693]
inactive: inhibition [1] -4.32%

CN1CCN(c2cnc3c(C4CCN(C(=O)c5ccc(OC(F)(F)F)cc5N)CC4)ncnc3c2)CC1 [BAY-885]
inactive: % residual kinase activity [2] 121% | % residual kinase activity [3] 111% | % residual kinase activity [4] 113% | % residual kinase activity [5] 112% | % residual kinase activity [6] 106% | % residual kinase activity [7] 104% | % residual kinase activity [8] 100% | % residual kinase activity [9] 100% | % residual kinase activity [10] 99% | % residual kinase activity [11] 98%
